For experiment [1], the system named is RAW264.7 phosphorylated c-Jun (Ser63). The experiment in a line: RAW264.7 phosphorylated c-Jun whole cell assay. To be noted: Mus musculus; cytological assay, activity level; lipopolysaccharide-activated RAW264.7 cells, phospho-c-Jun (Ser63) ELISA. The experiment is classed as cell-based. The protocol: RAW264.7 (ATCC TIB-71) cells were purchased from BeNa Culture Collection and maintained in a high-glucose DMEM medium (Gibco) containing 10% fetal bovine serum (Gibco) and 1% penicillin-streptomycin (Gibco). All cells were cultured at 37° C. in 95% air and 5% CO2. All cells were seeded into 120 μL of cell culture medium in a 96-well plate at a density of 2×10^5 cells per well. The stock solution of compound (15 mM) was serially diluted in DMSO (Sigma) and further diluted in growth medium, and it was then added at 15 μL per well as a 10× concentrated solution, well mixed with the cells and incubated with the cells for 30 min. Concentration of the compound vehicle (DMSO) in each well was 0.2%. After incubation for 30 min, the cells were activated with […] lipopolysaccharide (Sigma). Lipopolysaccharide was added to the growth medium as a 10× concentrated solution at 15 μL per well. The cell plate was incubated for 1 h, and then all the medium was removed. The level of C-Jun protein with phosphorylation of serine at site 63 was measured using the whole cell lysate kit-phosphorylated C-Jun assay (PathScan® Phospho-c-Jun (Ser63) Sandwich ELISA Kit) (CST, 7145C) according to the manufacturer's instructions.
(ELISA stands for enzyme-linked immunosorbent assay.)

The next experiment deals with T1, JNK1 kinase (Homo sapiens, UniProt P45983).
T1 construct: purchased Carna Biosciences 04-163
The experiment in a line: JNK1 activity screening (time-resolved fluorometric HTRF kinase assay). To be noted: enzymatic assay, activity level. The experiment is classed as biochemical. As to the method:
JNK1 activity screening. JNK1 activity was detected using a 96-well (Cisbio, 66PL96025) time-resolved fluorometric assay. The JNK1 assay was conducted in the following assay buffer: 10 mM MgCl2 (Sigma, M1028), 1 mM MnCl2 (Sigma, M1787), 1 mM DTT (Sigma, D0632) and 1× Enzymatic buffer/kinase (Cisbio, 62EZBFDC). By using the assay buffer, 3 μL of 0.1 ng/μL JNK1 kinase (Carna Biosciences, 04-163) was added to a 96-well microplate, and then 4 μL of a compound diluted appropriately (with a DMSO content of 2.5%) was added. The resulting mixture was incubated at room temperature for 0.5 h. To start the reaction, the assay buffer was used to mix 0.003 μM ATP (Aladdin, A7699) and 30 μM substrate ATF2-GST fusion (Cisbio, 64CUS000AFPEB), and 3 μL of the mixed solution was added to the microplate. The resulting mixture was incubated at room temperature for 2.5 h. HTRF detection buffer ([…], 62SDBRDD) was used then to prepare a mixture of 5 μg/mL MAb Anti GST-XL665 (Cisbio, 61GSTXLA) and 0.045 μg/mL PAb Anti-phospho ATF2-K (Cisbio, 61P12KAZ), and 10 μL of the mixture was added to the plate to terminate the reaction. After incubation for about 12 h, the plate was read on a Perkin-Elmer Envision reader.
In general terms: Time-resolved FRET reads energy transfer from a long-lived donor to a nearby acceptor.

Each structure is given as a SMILES string.

T1 sequence (P45983 whole entry): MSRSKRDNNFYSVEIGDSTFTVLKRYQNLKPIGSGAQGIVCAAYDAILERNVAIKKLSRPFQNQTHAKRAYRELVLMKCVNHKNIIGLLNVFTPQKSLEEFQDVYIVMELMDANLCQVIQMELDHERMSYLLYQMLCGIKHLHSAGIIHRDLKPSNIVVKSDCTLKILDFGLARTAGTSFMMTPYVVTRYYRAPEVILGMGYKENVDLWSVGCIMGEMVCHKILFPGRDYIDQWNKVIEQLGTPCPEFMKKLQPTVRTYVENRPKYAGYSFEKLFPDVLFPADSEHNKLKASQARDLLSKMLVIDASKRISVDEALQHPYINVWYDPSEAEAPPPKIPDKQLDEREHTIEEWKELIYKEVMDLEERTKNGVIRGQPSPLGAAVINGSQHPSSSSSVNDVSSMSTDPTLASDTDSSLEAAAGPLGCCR

One may read the IC50 as the concentration at which inhibition is half-maximal. Low readings indicate greater potency, high ones weaker potency. As to `CC(C)(C)Nc1ncc(C(N)=O)c(NC2CCCNC2)n1` (stereo not shown) [Compound T025, 2-(tert-butylamino)-4-(piperidin-3-ylamino)pyrimidine-5-carboxamide], the IC50 in experiment [1] is above 1000 nM; against JNK1 kinase it was below 100 nM.
On the same counts, the results for `CC(C)(C)Nc1ncc(C(N)=O)c(Nc2cccc(CO)c2)n1` [Compound T026, 2-(tert-butylamino)-4-((3-(hydroxymethyl)phenyl)amino)pyrimidine-5-carboxamide] are 100 to 500 nM and below 100 nM.
For `C[C@@H]1CC[C@@H](Nc2nc(NC(C)(C)C)ncc2C(=O)N2CC2)C[C@H]1O` [Compound T027, Aziridin-1-yl(2-(tert-butylamino)-4-(((1R, 3R,4R)-3-hydroxy-4-methylcyclohexyl)amino)pyrimidin-5-yl)methanone] the same measures were above 1000 nM and 500 to 1000 nM.
For `C[C@@H]1CC[C@@H](Nc2nc(NC(C)(C)C)ncc2C(F)F)C[C@H]1O` [Compound T028, (1R,2R,5R)-5-((2-(tert-butylamino)-5-(difluoromethyl)pyrimidin-4-yl)amino)-2-methylcyclohex-1-ol] the same measures were above 1000 nM and above 1000 nM.
For the compound `COc1cnc(NC(C)(C)C)nc1N[C@@H]1CC[C@@H](C)[C@H](O)C1` [Compound T029, (1R,2R,5R)-5-((2-(tert-butylamino)-5-methoxypyrimidin-4-yl)amino)-2-methylcyclohex-1-ol], the half-maximal inhibitory concentration (IC50) (in experiment [1]; on JNK1 kinase) was above 1000 nM each time.
As for `C[C@@H]1CC[C@@H](Nc2nc(NC(C)(C)C)ncc2CF)C[C@H]1O` [Compound T030, (1R,2R,5R)-5-((2-(tert-butylamino)-5-(fluoromethyl)pyrimidin-4-yl)amino)-2-methylcyclohex-1-ol], the IC50 (in experiment [1]; against JNK1 kinase) was above 1000 nM throughout.
In the case of `C[C@@H]1CC[C@@H](Nc2nc(NC(C)(C)C)ncc2S(N)(=O)=O)C[C@H]1O` [Compound T031, 2-(tert-butylamino)-4-(((1R,3R,4R)-3-hydroxy-4-methylcyclohexyl)amino) pyrimidine-5-sulfamide], the IC50 (in experiment [1]; against JNK1 kinase) was above 1000 nM each time.
In the case of `C[C@@H]1CC[C@@H](Nc2nc(NC(C)(C)C)ncc2O)C[C@H]1O` [Compound T032, 2-(tert-butylamino)-4-(((1R,3R,4R)-3-hydroxy-4-methylcyclohexyl)amino) pyrimidine-5-ol], the IC50 (in experiment [1]; against JNK1 kinase) was above 1000 nM in each case.
As to `C[C@@H]1CC[C@@H](Nc2nc(NC(C)(C)C)ncc2Br)C[C@H]1O` [Compound T033, (1R,2R,5R)-5-((5-bromo-2-(tert-butylamino)pyrimidin-4-yl)amino)-2-methylcyclohexan-1-ol], the half-inhibitory concentration (IC50) was 500 to 1000 nM in experiment [1] and below 100 nM against JNK1 kinase.
Take `C[C@@H]1CC[C@@H](Nc2nc(NC(C)(C)C)ncc2-n2ccnc2)C[C@H]1O` [Compound T034, (1R,2R,5R)-5-((2-(ter-butylamino)-5-(1H-imidazol-1-yl)pyrimidin-4-yl)amino)-2-methylcyclohex-1-ol]: the IC50 (in experiment [1]; at JNK1 kinase) was above 1000 nM each time.
As for `C[C@@H]1CC[C@@H](Nc2nc(NC(C)(C)C)ncc2-n2cncn2)C[C@H]1O` [Compound T035, (1R,2R,5R)-5-((2-(tert-butylamino)-5-(1H-1,2,4-triazol-1-yl)pyrimidin-4-yl)amino)-2-methylcyclohexan-1-ol], the IC50 lay in the range of 500 to 1000 nM in experiment [1] and 100 to 500 nM against JNK1 kinase.
Regarding `C[C@@H]1CC[C@@H](Nc2nc(NC(C)(C)C)ncc2-n2ccnn2)C[C@H]1O` [Compound T036, (1R,2R,5R)-5-((2-(tert-butylamino)-5-(1H-1,2,3-triazol-1-yl)pyrimidin-4-yl)amino)-2-methylcyclohexan-1-ol], the IC50 in experiment [1] was 500 to 1000 nM; on JNK1 kinase, 100 to 500 nM.
On the same counts, the results for `CS(=O)(=O)CCn1ccc(Nc2ccnc(N[C@H]3CC[C@H](O)CC3)n2)n1` [Compound T037, (1R,4R)-4-((4-((1-(2-(methylsulfonyl)ethyl)-1H-pyrazol-3-yl)amino)pyrimidin-2-yl)amino)cyclohexan-1-ol] are above 1000 nM and above 1000 nM.
For `CS(=O)(=O)CCn1nccc1Nc1ccnc(N[C@H]2CC[C@H](O)CC2)n1` [Compound T038, (1R,4R)-4-((4-((1-(2-(methylsulfonyl)ethyl)-1H-pyrazol-5-yl)amino)pyrimidin-2-yl)amino)cyclohexan-1-ol] the same measures were above 1000 nM and above 1000 nM.
For `C[C@@H]1CC[C@@H](Nc2nc(O[C@H]3CC[C@H](O)CC3)ncc2C(N)=O)C[C@H]1O` [Compound T039, 4-(((1R,3R,4R)-3-hydroxy-4-methylcyclohexyl)amino)-2-(((1R, 4R)-4-hydroxycyclohexyl)oxy) pyrimidine-5-carboxamide] the same measures were above 1000 nM and 100 to 500 nM.
For `COc1ccc(Oc2ncc(C(N)=O)c(N[C@@H]3CC[C@@H](C)[C@H](O)C3)n2)cc1` [Compound T040, 4-(((1R,3R,4R)-3-hydroxy-4-methylcyclohexyl)amino)-2-(4-methoxyphenoxy)pyrimidine-5-carboxamide], the IC50 in experiment [1] fell in the range of 500 to 1000 nM; at JNK1 kinase, 100 to 500 nM.
In the case of `C[C@@H]1CC[C@@H](Nc2nc(OC3CC3)ncc2C(N)=O)C[C@H]1O` [Compound T042, 2-cyclopropoxy-4-(((1R,3R,4R)-3-hydroxy-4-methylcyclohexyl)amino) pyrimidine-5-carboxamide], the figures for the IC50 (in experiment [1]; against JNK1 kinase) were above 1000 nM and 500 to 1000 nM, respectively.
For `C[C@@H]1CC[C@@H](Nc2nc(OC(C)(C)C)ncc2C(N)=O)C[C@H]1O` [Compound T043, 2-(tert-butoxy)-4-(((1R,3R,4R)-3-hydroxy-4-methylcyclohexyl)amino) pyrimidine-5-carboxamide] the same measures were above 1000 nM and 500 to 1000 nM.
For `C[C@@H]1CC[C@@H](Nc2cc(NC(C)(C)C)ncc2C#N)C[C@H]1O` [Compound T044, 6-(tert-butylamino)-4-(((1R,3R,4R)-3-hydroxy-4-methylcyclohexyl)amino) nicotinonitrile] the same measures were above 1000 nM and above 1000 nM.
On the same counts, the results for `C[C@@H]1CC[C@@H](Nc2cc(NC(C)(C)C)ncc2C(N)=O)C[C@H]1O` [Compound T045, 6-(tert-butylamino)-4-(((1R,3R,4R)-3-hydroxy-4-methylcyclohexyl)amino) nicotinamide] are above 1000 nM and above 1000 nM.
Turning to `C[C@@H]1CC[C@@H](Nc2cc(NCCO)ncc2C(N)=O)C[C@H]1O` [Compound T046, 4-(((1R,3R,4R)-3-hydroxy-4-methylcyclohexyl)amino)-6-((2-hydroxyethyl)amino)nicotinamide], the values for the IC50 (in experiment [1]; at JNK1 kinase) were above 1000 nM and 500 to 1000 nM, respectively.
On the same counts, the results for `CC(C)Nc1cc(N[C@@H]2CC[C@@H](C)[C@H](O)C2)c(C(N)=O)cn1` [Compound T047, 4-(((1R,3R,4R)-3-hydroxy-4-methylcyclohexyl)amino)-6-(isopropylamino)nicotinamide] are above 1000 nM and 500 to 1000 nM.
On the same counts, the results for `C[C@@H]1CC[C@@H](Nc2cc(NC3CCC(O)C3)ncc2C(N)=O)C[C@H]1O` (stereo partly drawn) [Compound T048, 4-(((1R,3R,4R)-3-hydroxy-4-methylcyclohexyl)amino)-6-((3-hydroxycyclopentyl)amino) nicotinamide] are above 1000 nM and 500 to 1000 nM.
Turning to `C[C@@H]1CC[C@@H](Nc2cc(NC3CCC3)ncc2C(N)=O)C[C@H]1O` [Compound T049, 6-(cyclobutylamino)-4-(((1R,3R,4R)-3-hydroxy-4-methylcyclohexyl)amino) nicotinamide], the half-maximal inhibitory concentration (IC50) in experiment [1] is above 1000 nM; at JNK1 kinase it was 500 to 1000 nM.
`C[C@@H]1CC[C@@H](Nc2cc(NC3CCC3O)ncc2C(N)=O)C[C@H]1O` (stereo partly drawn) [Compound T050, 4-(((1R,3R,4R)-3-hydroxy-4-methylcyclohexyl)amino)-6-((2-hydroxycyclobutyl)amino)nicotinamide]: the half-maximal inhibitory concentration (IC50) in experiment [1] is above 1000 nM; at JNK1 kinase, 500 to 1000 nM.
For `C[C@@H]1CC[C@@H](Nc2cc(NC3CC(O)C3)ncc2C(N)=O)C[C@H]1O` (stereo partly drawn) [Compound T051, 4-(((1R,3R,4R)-3-hydroxy-4-methylcyclohexyl)amino)-6-((3-hydroxycyclobutyl)amino)nicotinamide] the same measures were above 1000 nM and 500 to 1000 nM.
